Laboratory results published in patent US20260250318A1, “COMPOSITIONS AND METHODS FOR CROSSING THE BLOOD BRAIN BARRIER” (VOYAGER THERAPEUTICS, INC., priority 2022, published 2026).

How the values were obtained:
Conditions in all cases: synthetic library passage 3, intravenous, relative to wild-type AAV9
brain [1] = experiment: NGS fold enrichment of synthetic library (passage 3) in BALB/c mice, first cross-species screen; format: in vivo
Procedure, shortened: (§1)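 Fold enrichment versus wild-type AAV9 was derived by NGS of RT-PCR-amplified RNA from nervous tissue, collected e.g. 28 days after IV dosing […]. The library (passage 3) was given to two NHPs aged 2-4 years and to 6-8-week BALB/c and C57Bl/6 mice (n=3 each).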

brain [2] = experiment: NGS fold enrichment of synthetic library (passage 3) in C57Bl/6 mice, first cross-species screen; format: in vivo
Procedure, shortened: as §1

[3] = system: brain, spinal cord, and DRG of the NHPs; experiment: NGS fold enrichment of synthetic library (passage 3) in NHPs, first cross-species screen; format: in vivo, cynomolgus macaques (Macaca fascicularis)
Procedure, shortened: as §1

[4] = RNA from brain of BALB/c mice, NGS
[5] = RNA from brain of C57Bl/6 mice, NGS
[6] = RNA from spinal cord of NHPs, NGS

Row | Sequence | Fold enrichment over AAV9 in the brain of Mice (BALB/c) (brain [1]; [4]) [fold] | Fold enrichment over AAV9 in the brain of Mice (C57Bl/6) (brain [2]; [5]) [fold] | Fold enrichment over AAV9 in the brain of NHPs ([3]; RNA from brain of NHPs, NGS) [fold] | Fold enrichment over AAV9 in the spinal cord of NHPs [3, 6] [fold] | Fold enrichment over AAV9 in the brain of Mice (BALB/c) (brain [1]; RNA NGS, brain of BALB/c mice) [fold] | Fold enrichment over AAV9 in the brain of Mice (C57Bl/6) (brain [2]; RNA NGS, brain of C57Bl/6 mice) [fold] | Fold enrichment over AAV9 in the brain of NHPs ([3]; RNA NGS, brain of NHPs) [fold] | Fold enrichment over AAV9 in the spinal cord of NHPs ([3]; RNA NGS, spinal cord of NHPs) [fold]
1 | GSLDLGRSGQNQQT | 0.505 | 1.002 | 1.160 | 3.283 |  |  |  | 
2 | GSLFLATGGQNQQT | 0.485 | 0.775 | 1.220 | 0.000 |  |  |  | 
3 | GSLGNLQRGQNQQT |  |  |  |  | 0.385 | 0.947 | 1.003 | 0.895
4 | GSLHAGLSGQNQQT | 0.936 | 1.286 | 1.408 | 1.739 |  |  |  | 
5 | GSLHHDNHGQNQQT |  |  |  |  | 0.463 | 0.968 | 1.976 | 0.980
6 | GSLIGMQSGQNQQT |  |  |  |  | 0.392 | 0.797 | 1.656 | 6.783
7 | GSLKPTTLGQNQQT |  |  |  |  | 0.220 | 0.175 | 1.840 | 0.476
8 | GSLLISTSGQNQQT |  |  |  |  | 0.808 | 1.488 | 1.919 | 5.763
9 | GSLLQAHSGQNQQT |  |  |  |  | 0.748 | 0.575 | 2.182 | 1.008
10 | GSLLSAGMGQNQHT |  |  |  |  | 0.342 | 0.589 | 1.856 | 6.168
11 | GSLLTTASGQNQQT |  |  |  |  | 0.635 | 0.938 | 1.822 | 0.780
12 | GSLMDVHRGQNQQT | 0.238 | 1.009 | 1.150 | 0.387 |  |  |  | 
13 | GSLPRGTSDQNQQT |  |  |  |  | 0.495 | 0.453 | 2.362 | 0.000
14 | GSLSHMESGQNQQT |  |  |  |  | 0.265 | 0.489 | 1.120 | 0.829
15 | GSLSSHGVGQNQQT |  |  |  |  | 0.804 | 1.218 | 1.911 | 7.498
16 | GSLSTPSSGQNQQT |  |  |  |  | 0.669 | 1.094 | 2.159 | 1.279
17 | GSLVSQGAGQNQQT |  |  |  |  | 1.246 | 1.436 | 2.188 | 4.414
18 | GSLVSTQSGQNQQT | 0.650 | 1.282 | 1.305 | 1.293 |  |  |  | 
19 | GSLVSVQTGQNQQT |  |  |  |  | 0.469 | 0.903 | 3.534 | 6.043
20 | GSLYGQSLGQNQQT | 0.843 | 0.894 | 1.348 | 11.248 |  |  |  | 

Row | Sequence | Fold enrichment over AAV9 in the brain of Mice (BALB/c) (brain [1]; [4]) [fold] | Fold enrichment over AAV9 in the brain of Mice (C57Bl/6) (brain [2]; [5]) [fold] | Fold enrichment over AAV9 in the brain of NHPs ([3]; RNA from brain of NHPs, NGS) [fold] | Fold enrichment over AAV9 in the spinal cord of NHPs [3, 6] [fold] | Fold enrichment over AAV9 in the brain of Mice (BALB/c) (brain [1]; RNA NGS, brain of BALB/c mice) [fold] | Fold enrichment over AAV9 in the brain of Mice (C57Bl/6) (brain [2]; RNA NGS, brain of C57Bl/6 mice) [fold] | Fold enrichment over AAV9 in the brain of NHPs ([3]; RNA NGS, brain of NHPs) [fold] | Fold enrichment over AAV9 in the spinal cord of NHPs ([3]; RNA NGS, spinal cord of NHPs) [fold]
21 | GSNAQSAHGQNQQT | 0.245 | 0.976 | 1.371 | 0.888 |  |  |  | 
22 | GSNGFTALGQNQQT |  |  |  |  | 0.332 | 0.830 | 3.361 | 2.663
23 | GSNGGVGTGQNQQT |  |  |  |  | 1.087 | 1.191 | 2.130 | 0.788
24 | GSNLSFQSGQNQQT |  |  |  |  | 0.719 | 1.087 | 2.122 | 5.853
25 | GSNMGVPLGQNQQT |  |  |  |  | 0.420 | 0.334 | 2.049 | 2.448
26 | GSPGVSPSGQNQQT | 1.160 | 0.853 | 1.178 | 3.006 |  |  |  | 
27 | GSPLQDRVGQNQQT |  |  |  |  | 0.391 | 0.469 | 1.548 | 0.753
28 | GSPYMGATGQNQQT |  |  |  |  | 0.254 | 0.918 | 1.083 | 5.364
29 | GSQSTLGLGQNQQT | 0.400 | 0.594 | 1.204 | 3.246 |  |  |  | 
30 | GSRDGHTVGQNQQT |  |  |  |  | 0.661 | 0.495 | 1.928 | 7.089
31 | GSRETSLSGQNQQT | 0.203 | 1.364 | 1.373 | 5.193 |  |  |  | 
32 | GSRLVHVHGQNQQT |  |  |  |  | 0.934 | 1.277 | 2.334 | 1.174
33 | GSRMTQQFGQNQQT |  |  |  |  | 0.976 | 1.233 | 1.720 | 25.798
34 | GSRNGHAVGQNQQT |  |  |  |  | 0.939 | 0.434 | 1.574 | 2.688
35 | GSRNGHTVGRNQQT |  |  |  |  | 0.367 | 1.162 | 1.993 | 0.000
36 | GSRQSKRNELNQQT |  |  |  |  | 0.232 | 1.325 | 2.177 | 0.000
37 | GSRSQYDIGQNQQT |  |  |  |  | 0.193 | 0.528 | 1.706 | 0.112
38 | GSRSTGPSGQNQQT |  |  |  |  | 0.466 | 0.440 | 1.819 | 2.479
39 | GSRTLSNVGQNQQT |  |  |  |  | 0.542 | 0.617 | 1.640 | 3.219
40 | GSRTTQDIGQNQQT | 0.280 | 0.685 | 1.247 | 0.000 |  |  |  | 
